Experimental findings from patent US20240067702A1, “LACTAM-MODIFIED P[…]” (DONGBAO PURPLE STAR (HANGZHOU) BIOPHARMACEUTICAL CO., LTD., priority 2020, published 2024) are described below.

Data set [1] in a line: Pharmacokinetic evaluation in cynomolgus monkeys. To be noted: cynomolgus monkey, 0.02 mg/kg, single SC 0.02 mpk; for half-life: read-out: Half-life T1/2 (converted); for AUC(0-t): read-out: SC Concentration Integral AUC0-240 h. The format is in vivo. On the procedure: To test the pharmacokinetics of compounds in cynomolgus monkeys in vivo
The pharmacokinetic characteristics of the compounds in mammals after intravenous injection and subcutaneous injection were tested according to the standard protocol. In the experiment, the candidate compounds were formulated into clear solutions, and a single subcutaneous injection (SC, 0.02 mpk) was given to the cynomolgus monkeys. The vehicle for subcutaneous injection was citrate buffer (20 mM, pH=7). Whole blood was collected and prepared to obtain plasma. Drug concentration was analyzed by LC-MS/MS method, and pharmacokinetic parameters were calculated by Phoenix WinNonlin software.

Data set [2] is described as follows: Plasma protein binding (PPB) test, mouse. In kind it is in vitro ADME. The conditions noted are these: for fraction unbound at 4 h, 0.2 μM: pH 7.4, ultracentrifugation. On the procedure: To study the binding of the test compounds to human/mouse plasma albumin.
1. Matrix preparation: On the day of the experiment, the plasma was thawed in cold water and centrifuged at 3220 rpm for 5 min to remove all blood clots. The pH of the obtained plasma was measured and adjusted to 7.4±0.1 using 1% phosphoric acid or 1N sodium hydroxide as needed.
2. Dilution steps of the test compounds: The test compounds were dissolved in dimethyl sulfoxide (DMSO) to prepare stock solutions at concentrations of 10 mM and 2 mM, respectively. A 40 μM working solution was prepared by diluting 2 μL of the stock solution (2 mM) with 98 μL of DMSO. A 400 μM working solution of the control compound was prepared by diluting 10 μL of the stock solution with 240 μL of DMSO. The working solution of the compound (5 μL) was mixed with the blank matrix (995 μL) at a ratio of 1:200 to prepare the loading matrix.
3.1 An equal amount of 30 μL of the loading matrix (n=2) was transferred to the sample collection plate to prepare samples of time 0 (TO) for residue determination. The samples were immediately matched to the corresponding blank buffer in a final volume of 60 μL with a 1:1 volume ratio of plasma to buffer in each well. Then, 60 μL of 4% H3PO4 in H2O and 480 μL of stop solution containing an internal standard were then added to the TO samples of the test compounds. They were then stored at 2-8° C. with other samples pending for further processing.
3.2 The remaining plasma samples were pre-incubated in a carbon dioxide incubator at 37±1° C. for 30 min. The prepared protein-free samples (F samples) and loading matrix samples (230 μL) were transferred to polycarbonate tubes (n=2) and ultracentrifuged at 37° C. and 155000×g (35000 rpm) for 4 hours.
3.3 To prepare T samples (test samples), an additional matrix-containing sample was transferred to a separate 96-well plate (sample incubation plate) and incubated at 37° C. for 4 hours.
3.4 After centrifugation, 30 μL of protein-free sample and 30 μL of T sample were transferred from the second layer of supernatant (below the upper layer) to a new sample collection plate. Each sample was mixed with the corresponding blank buffer or matrix in a final volume of 60 μL with a matrix:buffer volume ratio of 1:1. 60 μL of 4% H3PO4 aqueous solution and 480 μL of stop solution (containing internal standard) were added to all samples. The mixture was centrifuged at 4000 rpm for 20 min, and 100 μL of the supernatant of each sample was taken for LC-MS/MS analysis.

Data set [3] in a line: Plasma stability (PLS) test, human plasma. To be noted: up to 120 min, read-out: PLS (H/M) T1/2, H; for half-life at 2 μM: pH 7.4, 37° C. The format is in vitro ADME.

Where two headings read alike, the source gives them in different places. *1 amine or outer side, *2 acyl side, *3 side chain or, on linkers, in order; H or OH if unused. Where a SMILES comes first, the peptide text is derived from it. Bridges are numbered along the chain shown (N, C = ends). Side-chain parts run from the residue outwards. [ ]: non-standard residue; d: D form. The star is where a group is joined. C20 diacid = O=C(O)CCCCCCCCCCCCCCCCCCC(=O)*; γGlu = O=C(O)[C@H](CCC(=O)[*:2])N[*:1]; AEEA = NCCOCCOCC(=O)O; Aib = CC(C)(N)C(=O)O Where only a bound is given, the exact number is not on record here.

What is called Cmax is the maximum level reached in the sampled fluid or tissue. By Tmax is commonly meant the time from dosing to the highest level. For `CC[C@H](C)[C@H](NC(=O)[C@H](CC(C)C)NC(=O)[C@H](Cc1c[nH]c2ccccc12)NC(=O)[C@@H]1CCC(=O)NCCCC[C@H](NC(=O)[C@H](CCC(N)=O)NC(=O)[C@H](C)NC(=O)[C@H](CCCCNC(=O)COCCOCCNC(=O)COCCOCCNC(=O)CC[C@H](NC(=O)CCCCCCCCCCCCCCCCCCC(=O)O)C(=O)O)NC(=O)[C@H](CCCCN)NC(=O)[C@H](CC(=O)O)NC(=O)[C@H](CC(C)C)NC(=O)C(C)(C)NC(=O)[C@@H](NC(=O)[C@H](CO)NC(=O)[C@H](Cc2ccc(O)cc2)NC(=O)[C@H](CC(=O)O)NC(=O)[C@H](CO)NC(=O)[C@@H](NC(=O)[C@H](Cc2ccccc2)NC(=O)[C@@H](NC(=O)CNC(=O)[C@H](CCC(=O)O)NC(=O)C(C)(C)NC(=O)[C@@H](N)Cc2ccc(O)cc2)[C@@H](C)O)[C@@H](C)O)[C@@H](C)CC)C(=O)N[C@@H](C)C(=O)N[C@@H](Cc2ccccc2)C(=O)N[C@@H]([C@@H](C)CC)C(=O)N1)C(=O)N[C@@H](C)C(=O)NCC(=O)NCC(=O)N1CCC[C@H]1C(=O)N[C@@H](CO)C(=O)N[C@@H](CO)C(=O)NCC(=O)N[C@@H](C)C(=O)N1CCC[C@H]1C(=O)N1CCC[C@H]1C(=O)N1CCC[C@H]1C(=O)N[C@@H](CO)C(N)=O` [WX-006] (H-Y[Aib]EGTFTSDYSI[Aib]LDKK([AEEA-AEEA-γGlu-C20 diacid])AQKAFIEWLIAGGPSSGAPPPS-NH2; lactam 20-24), in data set [1] (plasma), the highest level (Cmax) was 30 nM, the Tmax came out at 29 h, the half-life is 72.4 h and the AUC(0-t) came to 3.64 µM·h. Besides, in data set [2], the fraction unbound at 4 h, 0.2 μM worked out at 0.0035. In data set [3], the half-life at 2 μM is greater than 4.82 h.
For the compound `CC[C@H](C)[C@H](NC(=O)[C@H](CC(C)C)NC(=O)[C@H](Cc1c[nH]c2ccccc12)NC(=O)[C@@H]1CCC(=O)NCCCC[C@H](NC(=O)[C@H](CCC(N)=O)NC(=O)[C@H](C)NC(=O)[C@H](CCCCNC(=O)COCCOCCNC(=O)COCCOCCNC(=O)CC[C@H](NC(=O)CCCCCCCCCCCCCCCCCCC(=O)O)C(=O)O)NC(=O)[C@H](CCCCN)NC(=O)[C@H](CC(=O)O)NC(=O)[C@H](CC(C)C)NC(=O)C(C)(C)NC(=O)[C@@H](NC(=O)[C@H](CO)NC(=O)[C@H](Cc2ccc(O)cc2)NC(=O)[C@H](CC(=O)O)NC(=O)[C@H](CO)NC(=O)[C@@H](NC(=O)[C@H](Cc2ccccc2)NC(=O)[C@@H](NC(=O)CNC(=O)[C@H](CCC(=O)O)NC(=O)C(C)(C)NC(=O)[C@@H](N)Cc2ccc(O)cc2)[C@@H](C)O)[C@@H](C)O)[C@@H](C)CC)C(=O)N[C@@H](CCC(=O)O)C(=O)N[C@@H](Cc2ccccc2)C(=O)N[C@@H](C(C)C)C(=O)N1)C(=O)N[C@@H](C)C(=O)NCC(=O)NCC(=O)N1CCC[C@H]1C(=O)N[C@@H](CO)C(=O)N[C@@H](CO)C(=O)NCC(=O)N[C@@H](C)C(=O)N1CCC[C@H]1C(=O)N1CCC[C@H]1C(=O)N1CCC[C@H]1C(=O)N[C@@H](CO)C(N)=O` [WX-005] (H-Y[Aib]EGTFTSDYSI[Aib]LDKK([AEEA-AEEA-γGlu-C20 diacid])AQKEFVEWLIAGGPSSGAPPPS-NH2; lactam 20-24), in data set [1] (plasma), the peak concentration (Cmax) amounted to 31 nM, the Tmax stood at 40 h, the half-life was 98 h and the AUC(0-t) was 4.55 µM·h. This compound also displayed a fraction unbound at 4 h, 0.2 μM in data set [2] of 0.0022. In addition, the half-life at 2 μM in data set [3] was greater than 4.82 h.
As for `CC[C@H](C)[C@H](NC(=O)[C@H](CC(C)C)NC(=O)[C@H](Cc1c[nH]c2ccccc12)NC(=O)[C@@H]1CCC(=O)NCCCC[C@H](NC(=O)[C@H](CCC(N)=O)NC(=O)[C@H](C)NC(=O)[C@H](CCCCNC(=O)COCCOCCNC(=O)COCCOCCNC(=O)CC[C@H](NC(=O)CC[C@H](NC(=O)CCCCCCCCCCCCCCCCCCC(=O)O)C(=O)O)C(=O)O)NC(=O)[C@H](CCCCN)NC(=O)[C@H](CC(=O)O)NC(=O)[C@H](CC(C)C)NC(=O)C(C)(C)NC(=O)[C@@H](NC(=O)[C@H](CO)NC(=O)[C@H](Cc2ccc(O)cc2)NC(=O)[C@H](CC(=O)O)NC(=O)[C@H](CO)NC(=O)[C@@H](NC(=O)[C@H](Cc2ccccc2)NC(=O)[C@@H](NC(=O)CNC(=O)[C@H](CCC(=O)O)NC(=O)C(C)(C)NC(=O)[C@@H](N)Cc2ccc(O)cc2)[C@@H](C)O)[C@@H](C)O)[C@@H](C)CC)C(=O)N[C@@H](C)C(=O)N[C@@H](Cc2ccccc2)C(=O)N[C@@H](C(C)C)C(=O)N1)C(=O)N[C@@H](C)C(=O)NCC(=O)NCC(=O)N1CCC[C@H]1C(=O)N[C@@H](CO)C(=O)N[C@@H](CO)C(=O)NCC(=O)N[C@@H](C)C(=O)N1CCC[C@H]1C(=O)N1CCC[C@H]1C(=O)N1CCC[C@H]1C(=O)N[C@@H](CO)C(N)=O` [WX-002] (H-Y[Aib]EGTFTSDYSI[Aib]LDKK([AEEA-AEEA-γGlu-γGlu-C20 diacid])AQKAFVEWLIAGGPSSGAPPPS-NH2; lactam 20-24), in data set [1] (in vivo), the Cmax was 33 nM, the Tmax turned out to be 29 h, the half-life was 81 h and the AUC(0-t) worked out at 4.58 µM·h. In addition, the fraction unbound in data set [2] (ultracentrifugation, read-out: PPB % unbound (H/M)) was determined as 0.0021. In addition, in data set [3] (2 μM, 37° C.), the half-life was greater than 4.82 h.
